Structures are written as SMILES.

This assay concerns the target T1, recombinant human CETP (Homo sapiens, UniProt P11597).
T1 construct: made in house; host or cells: CHO cells (protein secreted into conditioned medium)
T1 sequence (P11597 18-493): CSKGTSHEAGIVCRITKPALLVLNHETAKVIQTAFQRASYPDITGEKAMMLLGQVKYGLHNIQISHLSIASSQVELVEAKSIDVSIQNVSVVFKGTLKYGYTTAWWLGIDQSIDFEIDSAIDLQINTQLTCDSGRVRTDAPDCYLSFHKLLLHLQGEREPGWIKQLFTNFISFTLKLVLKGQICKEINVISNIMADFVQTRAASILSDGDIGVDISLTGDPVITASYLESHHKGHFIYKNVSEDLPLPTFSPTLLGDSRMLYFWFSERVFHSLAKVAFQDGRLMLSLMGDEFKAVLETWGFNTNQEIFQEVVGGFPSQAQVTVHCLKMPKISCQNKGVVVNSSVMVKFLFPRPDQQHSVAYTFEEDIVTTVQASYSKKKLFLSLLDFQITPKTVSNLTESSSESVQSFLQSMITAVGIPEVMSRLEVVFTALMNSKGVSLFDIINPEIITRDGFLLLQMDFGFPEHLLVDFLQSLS
As to the kind of experiment: CETP in vitro fluorometric assay (Roar Biomedical), cholesterol ester transfer from HDL to LDL. Particulars: recombinant human CETP from CHO cells; 3 hours at 37° C.; fluorescence ex 485 nm / em 535 nm; compound concentrations between 1 nM and 30 μM; read-out: IC50 values for inhibition of CETP. The format is biochemical. The procedure:
CETP inhibitory activity of compounds of the present invention can be determined in a fluorometric assay puchased from Roar Biomedical, Inc. (New York, N.Y., USA). […] Recombinant human CETP was partially purified from medium conditioned by CETP expressing CHO cells. In a 384 well format 2.5 μl of compound solution in DMSO was combined with 2 μl of donor solution, 2 μl of acceptor solution and 0.8 μl of recombinant human CETP solution in a total volume of 100 μl with assay buffer and incubated for 3 hours at 37° C. The fluorescence intensity was measured at excitation wavelength of 485 nm and emission wavelength of 535 nm. IC50 values are calculated from dose effect curves from compound concentrations between 1 nM and 30 μM.
What is called IC50 is the concentration that gives 50% inhibition. As to `CC(C)c1nc2c(c3c1[C@@H](c1ccc(C4(C#N)CC4)cc1)OC31CCCC1)[C@@H](O)CC(C)(C)C2` [1(44), 1-(4-((3′R,9′S)-9′-hydroxy-4′-isopropyl-7′,7′-dimethyl-6′,7′,8′,9′-tetrahydro-3′H-spiro[cyclopentane-1,1′-furo[3,4-c]quinoline]-3′-yl)phenyl)cyclopropanecarbonitrile], the IC50 was found to be 69 nM. To `CC(C)c1nc2c(c3c1[C@@H](c1ccc(C(F)(F)F)cc1)OC31CCCC1)[C@@H](O)CC(C)(C)C2` [Example 1, (3′R,9′S)-4′-isopropyl-7′,7′-dimethyl-3′-(4-(trifluoromethyl)phenyl)-6′,7′,8′,9′-tetrahydro-3′H-spiro[cyclopentane-1,1′-furo[3,4-c]quinolin]-9′-ol] belongs 54 nM. To `CC(C)c1nc2c(c3c1[C@@H](c1ccc(C(F)(F)F)cc1)OC31CCCC1)[C@@H](O)CC1(CCC1)C2` [1(15), (3′R,9′S)-4′-isopropyl-7′,7′-(propan-1,3-diyl)-3′-(4-(trifluoromethyl)phenyl)-6′,7′,8′,9′-tetrahydro-3′H-spiro[cyclopentane-1,1′-furo[3,4-c]quinolin]-9′-ol] belongs 21 nM.

As for `CC1(C)Cc2nc(C3CCOCC3)c3c(c2[C@@H](O)C1)C1(CCCC1)O[C@@H]3c1ccc(C(C)(C)C)cc1` [1(36), (3′R,9′S)-3′-(4-tert-butylphenyl)-7′,7′-dimethyl-4′-(tetrahydro-2H-pyran-4-yl)-6′,7′,8′,9′-tetrahydro-3′H-spiro[cyclopentane-1,1′-furo[3,4-c]quinolin]-9′-ol], the IC50 is 74 nM.

For the compound `CC(C)c1nc2c(c3c1[C@@H](c1ccc(C4CC4)cc1)OC31CCCC1)[C@@H](O)CC(C)(C)C2` [1(45), (3′R,9′S)-3′-(4-cyclopropylphenyl)-4′-isopropyl-7′,7′-dimethyl-6′,7′,8′,9′-tetrahydro-3′H-spiro[cyclopentane-1,1′-furo[3,4-c]quinolin]-9′-ol], the IC50 worked out at 122 nM. To `CC(C)Cc1ccc([C@H]2OC3(CCCC3)c3c2c(C(C)C)nc2c3[C@@H](O)CC(C)(C)C2)cc1` [1(27), (3′R,9′S)-3′-(4-isobutylphenyl)-4′-isopropyl-7′,7′-dimethyl-6′,7′,8′,9′-tetrahydro-3′H-spiro[cyclopentane-1,1′-furo[3,4-c]quinolin]-9′-ol] belongs 299 nM. To `CC1(C)Cc2nc(C3CCOCC3)c3c(c2[C@@H](O)C1)C1(CCCC1)O[C@H]3c1ccc(C(F)(F)F)cc1` [1(13), (3′S,9′S)-7′,7′-dimethyl-4′-(tetrahydro-2H-pyran-4-yl)-3′-(4-(trifluoromethyl)phenyl)-6′,7′,8′,9′-tetrahydro-3′H-spiro[cyclopentane-1,1′-furo[3,4-c]quinolin]-9′-ol] belongs 6890 nM; to `CC(C)c1nc2c(c3c1[C@@H](c1ccc(C(C)(F)F)cc1)OC31CCCC1)[C@@H](O)CC(C)(C)C2` [1(32), (3′R,9′S)-3′-(4-(1,1-difluoroethyl)phenyl)-4′-isopropyl-7′,7′-dimethyl-6′,7′,8′,9′-tetrahydro-3′H-spiro[cyclopentane-1,1′-furo[3,4-c]quinolin]-9′-ol], 62 nM; to `CC(C)c1nc2c(c3c1[C@@H](c1ccc(OC(F)(F)F)cc1)OC31CCCC1)[C@@H](O)CC(C)(C)C2` [1(17), (3′R,9′S)-4′-isopropyl-7′,7′-dimethyl-3′-(4-(trifluoromethoxy)phenyl)-6′,7′,8′,9′-tetrahydro-3′H-spiro[cyclopentane-1,1′-furo[3,4-c]quinolin]-9′-ol], 131 nM.

`CC1(C)Cc2nc(C3CCCC3)c3c(c2[C@@H](O)C1)C1(CCCC1)O[C@@H]3c1ccc(C(F)(F)F)cc1` [1(6), (3′R,9′S)-4′-cyclopentyl-7′,7′-dimethyl-3′-(4-(trifluoromethyl)phenyl)-6′,7′,8′,9′-tetrahydro-3′H-spiro[cyclopentane-1,1′-furo[3,4-c]quinolin]-9′-ol]: the IC50 came to 37 nM. With `Cc1ccc([C@H]2OC3(CCCC3)c3c2c(C(C)C)nc2c3[C@@H](O)CC(C)(C)C2)cc1` [1(14), (3′R,9′S)-4′-isopropyl-7′,7′-dimethyl-3′-p-tolyl-6′,7′,8′,9′-tetrahydro-3′H-spiro[cyclopentane-1,1′-furo[3,4-c]quinolin]-9′-ol], the IC50 was 409 nM. Next, `CC(C)c1nc2c(c3c1[C@@H](c1ccc(C(F)(F)F)cc1)OC31CCOCC1)[C@@H](O)CC(C)(C)C2` [1(30), (3R,9S)-4-isopropyl-7,7-dimethyl-3-(4-(trifluoromethyl)phenyl)-2′,3′,5′,6,6′,7,8,9-octahydro-3H-spiro[furo[3,4-c]quinoline-1,4′-pyran]-9-ol]: 18 nM; `CC(C)c1nc2c(c3c1[C@@H](c1ccc(C(F)(F)F)cc1)OC3(C)C)[C@@H](O)CC(C)(C)C2` [1(3), (3R,9S)-4-isopropyl-1,1,7,7-tetramethyl-3-(4-(trifluoromethyl)phenyl)-1,3,6,7,8,9-hexahydrofuro[3,4-c]quinolin-9-ol]: 460 nM; `CC(C)c1nc2c(c3c1[C@@H](c1ccc(C(F)(F)F)nc1)OC31CCCC1)[C@@H](O)CC(C)(C)C2` [1(12), (3′R,9′S)-4′-isopropyl-7′,7′-dimethyl-3′-(6-(trifluoromethyl)pyridin-3-yl)-6′,7′,8′,9′-tetrahydro-3′H-spiro[cyclopentane-1,1′-furo[3,4-c]quinolin]-9′-ol]: 150 nM. For `CC1(C)Cc2nc(C3CCC3)c3c(c2[C@@H](O)C1)C1(CCCC1)O[C@@H]3c1ccc(C(F)(F)F)cc1` [1(28), (3′R,9′S)-4′-cyclobutyl-7′,7′-dimethyl-3′-(4-(trifluoromethyl)phenyl)-6′,7′,8′,9′-tetrahydro-3′H-spiro[cyclopentane-1,1′-furo[3,4-c]quinolin]-9′-ol], the IC50 turned out to be 51 nM. Next, `CC(C)c1nc2c(c3c1[C@H](c1ccc(C(F)(F)F)cc1)O[C@]31C=CCC1)[C@@H](O)CC(C)(C)C2` [1(2), (1R,3′S,9′S)-4′-isopropyl-7′,7′-dimethyl-3′-(4-(trifluoromethyl)phenyl)-6′,7′,8′,9′-tetrahydro-3′H-spiro[cyclopent[2]ene-1,1′-furo[3,4-c]quinolin]-9′-ol]: 4680 nM; `CC(C)c1nc2c(c3c1[C@@H](c1ccc(C(C)(C)C)cc1)OC31CCOCC1)[C@@H](O)CC(C)(C)C2` [1(42), (3R,9S)-3-(4-tert-butylphenyl)-4-isopropyl-7,7-dimethyl-2′,3′,5′,6,6′,7,8,9-octahydro-3H-spiro[furo[3,4-c]quinoline-1,4′-pyran]-9-ol]: 25 nM; `CC(C)c1nc2c(c3c1[C@@H](c1ccc(C(C)(C)C#N)cc1)OC31CCCC1)[C@@H](O)CC(C)(C)C2` [1(22), 2-(4-((3′R,9′S)-9′-hydroxy-4′-isopropyl-7′,7′-dimethyl-6′,7′,8′,9′-tetrahydro-3′H-spiro[cyclopentane-1,1′-furo[3,4-c]quinoline]-3′-yl)phenyl)-2-methylpropanenitrile]: 47 nM.

For `CC(C)c1nc2c(c3c1[C@@H](c1ccc(C(F)(F)F)s1)OC31CCCC1)[C@@H](O)CC(C)(C)C2` [1(24), (3′S,9′S)-4′-isopropyl-7′,7′-dimethyl-3′-(5-(trifluoromethyl)thiophen-2-yl)-6′,7′,8′,9′-tetrahydro-3′H-spiro[cyclopentane-1,1′-furo[3,4-c]quinolin]-9′-ol], the IC50 turned out to be 286 nM. Turning to `CC(C)c1nc2c(c3c1[C@@H](c1ccc(F)cc1)OC31CCCC1)[C@@H](O)CC(C)(C)C2` [1(8), (3′R,9′S)-3′-(4-fluorophenyl)-4′-isopropyl-7′,7′-dimethyl-6′,7′,8′,9′-tetrahydro-3′H-spiro[cyclopentane-1,1′-furo[3,4-c]quinolin]-9′-ol], the IC50 stood at 856 nM. Next, `CC(C)c1nc2c(c3c1[C@@H](c1cccc(C(F)(F)F)c1)OC31CCCC1)[C@@H](O)CC(C)(C)C2` [1(41), (3′R,9′S)-4′-isopropyl-7′,7′-dimethyl-3′-(3-(trifluoromethyl)phenyl)-6′,7′,8′,9′-tetrahydro-3′H-spiro[cyclopentane-1,1′-furo[3,4-c]quinolin]-9′-ol]: 524 nM; `CC(=O)O[C@H]1c2nc(C(C)C)c3c(c2[C@@H](O)CC1(C)C)C1(CCCC1)O[C@@H]3c1ccc(C(F)(F)F)cc1` [1(33), (3′R,6′R,9′S)-9′-hydroxy-4′-isopropyl-7′,7′-dimethyl-3′-(4-(trifluoromethyl)phenyl)-6′,7′,8′,9′-tetrahydro-3′H-spiro[cyclopentane-1,1′-furo[3,4-c]quinoline]-6′-yl acetate]: 229 nM; `CC(C)c1nc2c(c3c1[C@@H](c1ccc(Cl)cc1)OC31CCCC1)[C@@H](O)CC(C)(C)C2` [1(9), (3′R,9′S)-3′-(4-chlorophenyl)-4′-isopropyl-7′,7′-dimethyl-6′,7′,8′,9′-tetrahydro-3′H-spiro[cyclopentane-1,1′-furo[3,4-c]quinolin]-9′-ol]: 148 nM.

For the origin of these results see patent US20120053197A1, “TRICYCLIC PYRIDINE DERIVATIVES, MEDICAMENTS CONTAINING SUCH COMPOUNDS, THEIR USE AND PROCESS FOR THEIR PREPARATION” (BOEHRINGER INGELHEIM INTERNATIONAL GMBH, priority 2010, published 2012).
